tested on: HIV-1 reporter virus, integrase Q148H/G140S (QHGS); assay: Luciferase reporter virus infectivity assay, QHGS mutant; type: cell-based; conditions: 293T cells, Q148H/G140S reporter virus, Table 3; read-out: EC50 against the QHGS mutant
Text: Infectivity assays using reporter viruses derived from lentiviral vectors capable of a single round of infection were used to determine the activity (EC50) of compounds. The DNA used to generate viruses for infection was the full-length HIV-1 genome which had been envelope-deleted. In addition, a reporter gene (the firefly luciferase gene from Photinus pyralis) was cloned into the nef region of the HIV backbone for ease of assay readout. […]. Culture supernatants containing VSV-G pseudotyped virions were harvested 64 h post transfection, clarified by centrifugation to remove cell debris, and frozen at −70° C. until use.
HIV integrase was mutated within a shuttle vector (pGEM) containing the majority of the HIV-1 gag and pol sequence using site-directed mutagenesis to generate sequences that are known to confer resistance to published integrase inhibitors. These include but are not limited to mutations such as Q148H/G140S (in tables 2 and 3 # QHGS), N155H/E92Q (in table 2 # NHEQ), F121Y/T124K (in table 2 FYTK), Y143R (in table 2 # Y143R) and the triple mutant Q148K/G140A/E138A. (in table 2 # QKGAEA). The mutated integrase coding region within the shuttle vector was sequence verified, and then exchanged for the wild-type (WT) coding sequence in the reporter virus DNA backbone.
293T cells were plated out at 12000 cells per well in CellView 96-well cell culture plates (Invitrogen) 16 h prior to compound addition. Compounds were preincubated with cells for 4 h at 37° C. prior to the addition of virus sufficient to generate approximately 10000 Luciferase light units (as measured by the Victor Wallace luminometer) upon assaying using the Bright-Glo™ reagent (Promega) according to the manufacturer's instructions at 48 h post infection.

“6-Benzyloxy-1-[2-(2,6-dimethyl-morpholin-4-yl)-2-oxo-ethyl]-7-[5-(4-fluoro-2-methylsulfanyl-benzyl)-thiazol-2-yl]-1H-imidazo[1,2-a]pyrimidin-5-one [Example 168]” was tested, and the EC50 was 500 to 1000 nM.

same assay, conditions: Human immunodeficiency virus 1, HEK-293T, read-out: EC50 against the QHGS mutant

Compared with `C[C@@H]1CN(C(=O)Cn2ccn3c(=O)c(O)c(-c4ncc(Cc5ccc(F)cc5S(C)(=O)=O)s4)nc23)C[C@@H](C)O1` (stereo in doubt) [Example 138, 1-[2-(2,6-Dimethyl-morpholin-4-yl)-2-oxo-ethyl]-7-[5-(4-fluoro-2-methanesulfonyl-benzyl)-thiazol-2-yl]-6-hydroxy-1H-imidazo[1,2-a]pyrimidin-5-one], `C[C@H]1CN(C(=O)Cn2ccn3c(=O)c(O)c(-c4ncc(Cc5ccc(F)cc5S(=O)(=O)N(C)C)s4)nc23)C[C@H](C)O1` (stereo in doubt) [Example 104, 2-(2-{1-[2-(2,6-Dimethyl-morpholin-4-yl)-2-oxo-ethyl]-6-hydroxy-5-oxo-1,5-dihydro-imidazo[1,2-a]pyrimidin-7-yl}-thiazol-5-ylmethyl)-5-fluoro-N,N-dimethyl-benzenesulfonamide] is lower in EC50: 500 to 1000 nM for the first, under 500 nM for the second.

Compared with `C[C@H]1CN(C(=O)Cn2cc(N3CCCS3(=O)=O)n3c(=O)c(O)c(-c4ncc(Cc5ccc(F)cc5)s4)nc23)C[C@H](C)O1` [Example 75, 1-[2-(2,6-Dimethyl-morpholin-4-yl)-2-oxo-ethyl]-3-(1,1-dioxo-1l6-isothiazolidin-2-yl)-7-[5-(4-fluoro-benzyl)-thiazol-2-yl]-6-hydroxy-1H-imidazo[1,2-a]pyrimidin-5-one], `C[C@H]1CN(C(=O)Cn2ccn3c(=O)c(O)c(-c4ncc(Cc5ccc(F)cc5)s4)nc23)C[C@H](C)O1` [Example 182, 1-[2-((2S,6S)-2,6-Dimethyl-morpholin-4-yl)-2-oxo-ethyl]-7-[5-(4-fluoro-benzyl)-thiazol-2-yl]-6-hydroxy-1H-imidazo[1,2-a]pyrimidin-5-one] is lower in EC50: 500 to 1000 nM for the first, under 500 nM for the second.

Compared with `O=C(Cn1ccn2c(=O)c(O)c(-c3ncc(Cc4ccc(F)cc4)s3)nc12)N1CC2CCC1C2` (stereo not shown) [Example 185, 1-[2-(2-Aza-bicyclo[2.2.1]hept-2-yl)-2-oxo-ethyl]-7-[5-(4-fluoro-benzyl)-thiazol-2-yl]-6-hydroxy-1H-imidazo[1,2-a]pyrimidin-5-one], `CC1CCCCN1C(=O)Cn1ccn2c(=O)c(O)c(-c3ncc(Cc4ccc(F)cc4)s3)nc12` (stereo not shown) [Example 126, 7-(5-(4-fluorobenzyl)thiazol-2-yl)-6-hydroxy-1-(2-(2-methylpiperidin-1-yl)-2-oxoethyl)imidazo[1,2-a]pyrimidin-5(1H)-one] is lower in EC50: 1000 to 10000 nM for the first, 500 to 1000 nM for the second.

`C[C@@H]1CN(C(=O)Cn2cc(N3CCCS3(=O)=O)n3c(=O)c(O)c(C(=O)NCc4ccc(F)cc4S(=O)(=O)N(C)C)nc23)C[C@@H](C)O1` [Example 186, 1-[2-((2R,6R)-2,6-Dimethyl-morpholin-4-yl)-2-oxo-ethyl]-3-(1,1-dioxo-1lambda*6*-isothiazolidin-2-yl)-6-hydroxy-5-oxo-1,5-dihydro-imidazo[1,2-a]pyrimidine-7-carboxylic acid 2-dimethylsulfamoyl-4-fluoro-benzylamide] and `CC1CC(C)CN(C(=O)Cn2cc(N3CCCS3(=O)=O)n3c(=O)c(O)c(C(=O)NCc4ccc(F)cc4S(=O)(=O)N(C)C)nc23)C1` (stereo not shown) [Example 187, 1-[2-(3,5-Dimethyl-piperidin-1-yl)-2-oxo-ethyl]-3-(1,1-dioxo-1lambda*6*-isothiazolidin-2-yl)-6-hydroxy-5-oxo-1,5-dihydro-imidazo[1,2-a]pyrimidine-7-carboxylic acid 2-dimethylsulfamoyl-4-fluoro-benzylamide] cannot be ordered by EC50: under 500 nM for the first, under 500 nM for the second.

First: CN(C)S(=O)(=O)c1cc(F)ccc1CNC(=O)c1nc2n(CC(=O)N3CCCCC3)cc(N3CCCS3(=O)=O)n2c(=O)c1O [Example 188, 3-(1,1-Dioxo-1lambda*6*-isothiazolidin-2-yl)-6-hydroxy-5-oxo-1-(2-oxo-2-piperidin-1-yl-ethyl)-1,5-dihydro-imidazo[1,2-a]pyrimidine-7-carboxylic acid 2-dimethylsulfamoyl-4-fluoro-benzylamide]
Second: CC1CCCCN1C(=O)Cn1cc(N2CCCS2(=O)=O)n2c(=O)c(O)c(C(=O)NCc3ccc(F)cc3S(=O)(=O)N(C)C)nc12 (stereo not shown) [Example 189, 3-(1,1-Dioxo-1lambda*6*-isothiazolidin-2-yl)-6-hydroxy-1-[2-(2-methyl-piperidin-1-yl)-2-oxo-ethyl]-5-oxo-1,5-dihydro-imidazo[1,2-a]pyrimidine-7-carboxylic acid 2-dimethylsulfamoyl-4-fluoro-benzylamide]
The EC50 of the first is lower: under 500 nM for the first, 500 to 1000 nM for the second.

Compared with `CSCc1cn(CC(=O)N2CC(C)CC(C)C2)c2nc(C(=O)NCc3ccc(Cl)c(Cl)c3)c(O)c(=O)n12` (stereo not shown) [Example 191, 1-[2-(3,5-Dimethyl-piperidin-1-yl)-2-oxo-ethyl]-6-hydroxy-3-methylsulfanylmethyl-5-oxo-1,5-dihydro-imidazo[1,2-a]pyrimidine-7-carboxylic acid 3,4-dichloro-benzylamide], `CC1CC(C)CN(C(=O)Cn2cc(CS(C)(=O)=O)n3c(=O)c(O)c(C(=O)NCc4ccc(Cl)c(Cl)c4)nc23)C1` (stereo not shown) [Example 193, 1-[2-(3,5-Dimethyl-piperidin-1-yl)-2-oxo-ethyl]-6-hydroxy-3-methanesulfonylmethyl-5-oxo-1,5-dihydro-imidazo[1,2-a]pyrimidine-7-carboxylic acid 3,4-dichloro-benzylamide] is lower in EC50: 1000 to 10000 nM for the first, under 500 nM for the second.

`CSCc1cn(CC(=O)N2CC(C)CC(C)C2)c2nc(C(=O)NCc3ccc(F)cc3S(=O)(=O)N(C)C)c(O)c(=O)n12` (stereo not shown) [Example 192, 1-[2-(3,5-Dimethyl-piperidin-1-yl)-2-oxo-ethyl]-6-hydroxy-3-methylsulfanylmethyl-5-oxo-1,5-dihydro-imidazo[1,2-a]pyrimidine-7-carboxylic acid 2-dimethylsulfamoyl-4-fluoro-benzylamide] and `CC1CC(C)CN(C(=O)Cn2cc(CS(C)(=O)=O)n3c(=O)c(O)c(C(=O)NCc4ccc(F)cc4S(=O)(=O)N(C)C)nc23)C1` (stereo not shown) [Example 194, 1-[2-(3,5-Dimethyl-piperidin-1-yl)-2-oxo-ethyl]-6-hydroxy-3-methanesulfonylmethyl-5-oxo-1,5-dihydro-imidazo[1,2-a]pyrimidine-7-carboxylic acid 2-dimethylsulfamoyl-4-fluoro-benzylamide] cannot be ordered by EC50: under 500 nM for the first, under 500 nM for the second.

`O=C(NCc1ccc(Cl)c(Cl)c1)c1nc2n(CC(=O)N3CCCCC3)cc(CN3CCOCC3)n2c(=O)c1O` [Example 181, 6-Hydroxy-3-morpholin-4-ylmethyl-5-oxo-1-(2-oxo-2-piperidin-1-yl-ethyl)-1,5-dihydro-imidazo[1,2-a]pyrimidine-7-carboxylic acid 3,4-dichloro-benzylamide] and `CC1CC(C)CN(C(=O)Cn2cc(N3CCCS3(=O)=O)n3c(=O)c(O)c(C(=O)NCc4ccc(Cl)c(Cl)c4)nc23)C1` (stereo not shown) [Example 190, 1-[2-(3,5-Dimethyl-piperidin-1-yl)-2-oxo-ethyl]-3-(1,1-dioxo-1lambda*6*-isothiazolidin-2-yl)-6-hydroxy-5-oxo-1,5-dihydro-imidazo[1,2-a]pyrimidine-7-carboxylic acid 3,4-dichloro-benzylamide] fall in the same range of EC50: 500 to 1000 nM for the first, 500 to 1000 nM for the second.

`CN1CCC(n2ccn3c(=O)c(O)c(-c4ncc(Cc5ccc(F)cc5)s4)nc23)C1=O` (stereo not shown) [Example 183, 7-[5-(4-Fluoro-benzyl)-thiazol-2-yl]-6-hydroxy-1-(1-methyl-2-oxo-pyrrolidin-3-yl)-1H-imidazo[1,2-a]pyrimidin-5-one] and `CC1CCN(C(=O)Cn2ccn3c(=O)c(O)c(-c4ncc(Cc5ccc(F)cc5)s4)nc23)CC1` [Example 157, 7-[5-(4-Fluoro-benzyl)-thiazol-2-yl]-6-hydroxy-1-[2-(4-methyl-piperidin-1-yl)-2-oxo-ethyl]-1H-imidazo[1,2-a]pyrimidin-5-one] fall in the same range of EC50: 500 to 1000 nM for the first, 500 to 1000 nM for the second.

First: CC1CN(C(=O)C(C)n2ccn3c(=O)c(O)c(-c4ncc(Cc5ccc(F)cc5)s4)nc23)CC(C)O1 (stereo not shown) [Example 184, 1-[2-(2,6-Dimethyl-morpholin-4-yl)-1-methyl-2-oxo-ethyl]-7-[5-(4-fluoro-benzyl)-thiazol-2-yl]-6-hydroxy-1H-imidazo[1,2-a]pyrimidin-5-one]
Second: C[C@@H]1C[C@@H](C)CN(C(=O)Cn2ccn3c(=O)c(O)c(-c4ncc(Cc5ccc(F)cc5)s4)nc23)C1 (stereo in doubt) [Example 180, 1-[2-(3,5-Dimethyl-piperidin-1-yl)-2-oxo-ethyl]-7-[5-(4-fluoro-benzyl)-thiazol-2-yl]-6-hydroxy-1H-imidazo[1,2-a]pyrimidin-5-one]
The EC50 of the first is higher: 1000 to 10000 nM for the first, 500 to 1000 nM for the second.

With `COC(=O)c1cc(F)ccc1Cc1cnc(-c2nc3n(CC(=O)N4C[C@H](C)O[C@@H](C)C4)ccn3c(=O)c2O)s1` (stereo in doubt) [Example 58, 2-(2-{1-[2-(2,6-Dimethyl-morpholin-4-yl)-2-oxo-ethyl]-6-hydroxy-5-oxo-1,5-dihydro-imidazo[1,2-a]pyrimidin-7-yl}-thiazol-5-ylmethyl)-5-fluoro-benzoic acid methyl ester] the EC50 was 500 to 1000 nM.
